Reference: patent US20210380548A1, “Fused [1,2,4]Thiadiazine Derivatives Which Act as KAT Inhibitors of the MYST Family” (CTxT Pty Limited, priority 2017, published 2021)
pIC50: −log10 of the molar value.

What was measured:
HBO-KAT7 [1] = molecular target: T1, HBO-KAT7 (Homo sapiens, UniProt O95251); experiment: Revised Acetyltransferase Biochemical Assay, KAT7; conditions: Table 9 (HBO-KAT7), 1 μM Acetyl coenzyme A
T1 construct: encoding amino acid residues 325 to 611 (Uniprot 095251-1) of human KAT7; made in house; host or cells: E. coli BL21 DE3 RIL
T1 sequence (O95251 with tags, fused parts or gaps): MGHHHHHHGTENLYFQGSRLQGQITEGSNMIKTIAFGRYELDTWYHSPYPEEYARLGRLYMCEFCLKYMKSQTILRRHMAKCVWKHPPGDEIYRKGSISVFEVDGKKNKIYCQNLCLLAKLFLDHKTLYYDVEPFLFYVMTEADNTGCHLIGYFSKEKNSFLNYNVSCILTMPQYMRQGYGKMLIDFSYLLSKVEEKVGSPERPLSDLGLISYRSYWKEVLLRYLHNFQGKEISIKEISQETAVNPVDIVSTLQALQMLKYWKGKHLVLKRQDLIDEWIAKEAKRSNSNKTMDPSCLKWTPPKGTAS

MOZ-KAT6A [2] = molecular target: T2, MOZ-KAT6A (Homo sapiens, UniProt Q92794, A567V); experiment: Acetyltransferase biochemical assay (AlphaScreen), KAT6A; conditions: Table 2 (MOZ-KAT6A); 10 μM Acetyl coenzyme A, histone H3.1, 5 nM enzyme
T2 construct: encoding amino acid residues 507 to 778 (Uniprot Q92794-1) of human KAT6A; made in house; host or cells: E. coli BL21 DE3
T2 sequence (Q92794 507-778 A567V limits assumed): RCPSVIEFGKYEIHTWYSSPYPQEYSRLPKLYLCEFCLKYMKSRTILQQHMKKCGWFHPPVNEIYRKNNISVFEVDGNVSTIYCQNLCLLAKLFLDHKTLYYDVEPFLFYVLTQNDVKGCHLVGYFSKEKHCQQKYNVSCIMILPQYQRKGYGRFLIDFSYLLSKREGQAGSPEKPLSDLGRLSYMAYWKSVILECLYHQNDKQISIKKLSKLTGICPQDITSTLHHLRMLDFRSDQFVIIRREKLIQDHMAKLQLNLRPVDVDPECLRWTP

HBO-KAT7 [3] = molecular target: T1, HBO-KAT7; experiment: Acetyltransferase biochemical assay (AlphaScreen), KAT7; conditions: Table 3 (HBO-KAT7); 0.4 μM Acetyl coenzyme A, histone H3.1, 40 nM enzyme
TIP60-KAT5 [4] = molecular target: T3, TIP60-KAT5 (Homo sapiens, UniProt Q92993); experiment: Revised Acetyltransferase Biochemical Assay, KAT5; conditions: 10 nM KAT5, 1 μM AcCoA, 100 nM histone H4, 90 min
T3 construct: encoding amino acid residues 2 to 461 (Uniprot Q92993-2) of human KAT5 isoform; made in house; host or cells: E. coli BL21 DE3
T3 sequence (Q92993 2-461 isoform Q92993-2): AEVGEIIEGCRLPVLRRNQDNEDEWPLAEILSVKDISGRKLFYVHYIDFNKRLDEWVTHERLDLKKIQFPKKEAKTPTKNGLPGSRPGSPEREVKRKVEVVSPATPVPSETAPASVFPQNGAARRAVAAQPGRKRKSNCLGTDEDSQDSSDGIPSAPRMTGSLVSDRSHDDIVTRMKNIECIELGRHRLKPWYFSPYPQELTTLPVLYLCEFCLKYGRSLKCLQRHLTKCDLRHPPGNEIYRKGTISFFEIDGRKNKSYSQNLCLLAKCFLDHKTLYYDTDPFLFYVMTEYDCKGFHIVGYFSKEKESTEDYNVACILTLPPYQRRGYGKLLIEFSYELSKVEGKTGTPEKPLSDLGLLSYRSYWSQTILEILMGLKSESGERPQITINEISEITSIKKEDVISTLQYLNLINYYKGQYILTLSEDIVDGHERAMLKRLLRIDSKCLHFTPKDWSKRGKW

TIP60-KAT5 [5] = molecular target: T3, TIP60-KAT5; experiment: Acetyltransferase biochemical assay (AlphaScreen), KAT5; conditions: Table 1 (TIP60-KAT5); 0.4 μM Acetyl coenzyme A, histone H4, 10 nM enzyme
MOZ-KAT6A [6] = molecular target: T2, MOZ-KAT6A; experiment: Revised Acetyltransferase Biochemical Assay, KAT6A; conditions: Table 8 (MOZ-KAT6A), 1 μM Acetyl coenzyme A
MOF-KAT8 = molecular target: T4, MOF-KAT8 (Homo sapiens, UniProt Q9H7Z6); experiment: Revised Acetyltransferase Biochemical Assay, KAT8
T4 sequence (Q9H7Z6 177-447): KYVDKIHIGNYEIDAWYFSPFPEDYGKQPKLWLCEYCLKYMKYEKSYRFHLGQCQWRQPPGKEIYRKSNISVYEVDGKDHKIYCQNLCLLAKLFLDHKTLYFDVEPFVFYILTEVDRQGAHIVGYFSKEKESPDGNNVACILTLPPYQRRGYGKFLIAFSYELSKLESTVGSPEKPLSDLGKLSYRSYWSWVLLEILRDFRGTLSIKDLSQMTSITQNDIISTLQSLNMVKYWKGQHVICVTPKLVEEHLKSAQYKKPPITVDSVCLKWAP

pIC50 (HBO-KAT7 [1]) | pIC50 (MOZ-KAT6A [2]) | pIC50 (HBO-KAT7 [3]) | pIC50 (TIP60-KAT5 [4]) | pIC50 (TIP60-KAT5 [5]) | pIC50 (MOZ-KAT6A [6]) | pIC50 (MOF-KAT8) | SMILES
4.94 | 4.29 | 4.22 | 4.15 | < 3.90 | 5.24 |  | O=C(NCCc1ccccc1-c1cccnc1)C1=Nc2ccccc2S(=O)(=O)N1 [Example 34, N-(2-(Pyridin-3-yl)phenethyl)-2H-benzo[e][1,2,4]thiadiazine-3-carboxamide 1,1-dioxide]
6.39 |  | 5.52 | 6.68 | 5.64 | 7.34 | < 3.90 | O=C(NCCc1ccccc1C(F)(F)F)C1=Nc2ccc(I)cc2S(=O)(=O)N1 [Example 118]
6.38 | 6.77 | 5.60 | 6.19 | 5.50 | 7.33 |  | O=C(NCC(c1ccccc1)c1ncco1)C1=Nc2ccc(-c3cscn3)cc2S(=O)(=O)N1 (stereo not shown) [Example 135]
4.65 |  |  | < 3.90 |  | 5.06 | < 3.90 | O=C(NCC(c1ncco1)c1ccccc1CO)C1=Nc2ccccc2S(=O)(=O)N1 (stereo not shown) [Example 157]
5.26 |  |  | 4.57 |  | 5.76 | 4.51 | O=C(NCC(c1cccc(-c2ccccc2)c1)c1ncco1)C1=Nc2ccccc2S(=O)(=O)N1 (stereo not shown) [Example 158]
5.36 |  |  | 5.04 |  | 6.57 | 4.64 | O=C(NCC(c1ncco1)c1ccccc1-c1ccccc1)C1=Nc2ccccc2S(=O)(=O)N1 (stereo not shown) [Example 161]
5.92 | 5.02 | 5.14 | 4.86 | 4.43 | 5.86 |  | CC(CNC(=O)C1=Nc2ccccc2S(=O)(=O)N1)(c1ccccc1)c1ccccc1 [Example 206]
5.35 |  |  | 4.01 |  | 5.87 | < 3.90 | N#Cc1cccc(C(CNC(=O)C2=Nc3ccccc3S(=O)(=O)N2)c2ncco2)c1 (stereo not shown) [Example 227, N-(2-(3-Cyanophenyl)-2-(oxazol-2-yl)ethyl)-2H-benzo[e][1,2,4]thiadiazine-3-carboxamide 1,1-dioxide]

The remaining lines, values behind:

SMILES | pIC50 (HBO-KAT7 [1]) | pIC50 (MOZ-KAT6A [2]) | pIC50 (HBO-KAT7 [3]) | pIC50 (TIP60-KAT5 [4]) | pIC50 (TIP60-KAT5 [5]) | pIC50 (MOZ-KAT6A [6]) | pIC50 (MOF-KAT8)
O=C(NCC(c1ccccc1)c1nc(CO)no1)C1=Nc2ccc(I)cc2S(=O)(=O)N1 (stereo not shown) [Example 59, N-(2-(3-(hydroxymethyl)-1,2,4-oxadiazol-5-yl)-2-phenylethyl)-7-iodo-2H-benzo[e][1,2,4]thiadiazine-3-carboxamide 1,1-dioxide] | 6.39 |  |  | 6.14 |  | 7.49 | 4.57
O=C(NCCc1ccccn1)C1=Nc2ccc(I)cc2S(=O)(=O)N1 [Example 107] |  | 4.92 | 4.63 |  | 4.68 |  | 
O=C(NCCc1cccnc1)C1=Nc2ccc(I)cc2S(=O)(=O)N1 [Example 108] |  | 4.94 | 4.30 |  | 4.11 |  | 
COC(=O)C(CNC(=O)C1=Nc2ccccc2S(=O)(=O)N1)c1ccccc1 (stereo not shown) [Example 112, Methyl 3-(1,1-dioxido-2H-benzo[e][1,2,4]thiadiazine-3-carboxamido)-2-phenylpropanoate] |  | 5.34 | 5.39 |  | 4.73 |  | 
O=C(NCC(c1ccccc1)c1ncco1)C1=Nc2ccc(C(F)(F)F)cc2S(=O)(=O)N1 (stereo not shown) [Example 120] | 6.85 |  | 5.45 | 6.65 | 5.91 | 7.77 | 4.38
O=C(NCC(c1cccc(I)c1)c1ncco1)C1=Nc2ccccc2S(=O)(=O)N1 (stereo not shown) [Example 160, N-(2-(3-iodophenyl)-2-(oxazol-2-yl)ethyl)-2H-benzo[e][1,2,4]thiadiazine-3-carboxamide 1,1-dioxide] | 5.78 |  |  | 4.88 |  | 6.33 | 5.31
O=C(NCC(F)(F)c1ccccc1OC(F)F)C1=Nc2ccc(Cl)cc2S(=O)(=O)N1 [Example 232, 7-chloro-N-(2-(2-(difluoromethoxy)phenyl)-2,2-difluoroethyl)-2H-benzo[e][1,2,4]thiadiazine-3-carboxamide 1,1-dioxide] | 6.41 |  |  | 5.56 |  | 6.60 | 4.46
